Key:
Conditions in all cases: 72 h
[1] = test system: Caco-2; assay: cell viability relative to DMSO; higher = less toxic
[2] = test system: Calu-3; assay: as above
[3] = test system: HepG2; assay: as above
[4] = test system: U2OS; assay: as above
[5] = test system: Vero E6; assay: as above
[6] = test system: Caco-2; assay: relative viability EC50 (midpoint between 100% and the lowest measured viability); higher = less toxic
[7] = test system: Calu-3; assay: as above
[8] = test system: HepG2; assay: as above
[9] = test system: U2OS; assay: as above
[10] = test system: Vero E6; assay: as above
[11] = test system: Caco-2; assay: drug sensitivity score (DSS) for viability; higher = more toxic; extreme values may be limits of the assay
[12] = test system: Calu-3; assay: as above
[13] = test system: HepG2; assay: as above
[14] = test system: U2OS; assay: as above
[15] = test system: Vero E6; assay: as above

Row | Structure (SMILES) | cell viability ([1]; 1 nM) | cell viability ([1]; 10 nM) | cell viability ([1]; 100 nM) | cell viability ([1]; 1000 nM) | cell viability ([1]; 10000 nM) | cell viability ([2]; 1 nM) | cell viability ([2]; 10 nM) | cell viability ([2]; 100 nM) | cell viability ([2]; 1000 nM) | cell viability ([2]; 10000 nM) | cell viability ([3]; 1 nM) | cell viability ([3]; 10 nM) | cell viability ([3]; 100 nM) | cell viability ([3]; 1000 nM) | cell viability ([3]; 10000 nM) | cell viability ([4]; 1 nM) | cell viability ([4]; 10 nM) | cell viability ([4]; 100 nM) | cell viability ([4]; 1000 nM) | cell viability ([4]; 10000 nM) | cell viability ([5]; 1 nM) | cell viability ([5]; 10 nM) | cell viability ([5]; 100 nM) | cell viability ([5]; 1000 nM) | cell viability ([5]; 10000 nM) | relative viability EC50 [6] | relative viability EC50 [7] | relative viability EC50 [8] | relative viability EC50 [9] | relative viability EC50 [10] | drug sensitivity score [11] | drug sensitivity score [12] | drug sensitivity score [13] | drug sensitivity score [14] | drug sensitivity score [15]
1 | CC1(C)CC(=O)C(C2C3=C(CC(C)(C)CC3=O)Oc3ccccc32)C(=O)C1 (stereo not given) | 99.2% | 93.7% | 96.5% | 95.8% | 99.2% | 93% | 98.1% | 98% | 101% | 109% | 92.1% | 103% | 97.5% | 96.8% | 102% | 96.7% | 101% | 95% | 98.2% | 101% | 102% | 98% | 103% | 102% | 100% | > 10 µM | > 10 µM | > 10 µM | > 10 µM | > 10 µM | 0 | 0 | 0 | 0 | 0
2 | CCC(=N\O)/C(C)=C/c1ccc(F)cc1 | 93.9% | 91.4% | 89.5% | 96.4% | 97.5% | 104% | 98.5% | 95.9% | 107% | 95% | 91.9% | 107% | 102% | 102% | 91% | 98.4% | 100% | 98.4% | 103% | 95% | 99.1% | 99.2% | 102% | 98.5% | 98.8% | > 10 µM | > 10 µM | > 10 µM | > 10 µM | > 10 µM | 0 | 0 | 0 | 0 | 0
3 | CCN(CC)CCCC(C)Nc1nc(C)cc(Nc2ccc3nc(C)cc(N)c3c2)n1 (stereo not given) | 102% | 97.2% | 99.5% | 95% | 105% | 104% | 92% | 95.4% | 92.5% | 110% | 96% | 99.9% | 100% | 95.6% | 79.9% | 106% | 97.6% | 100% | 97.8% | 102% | 97.7% | 102% | 104% | 97.9% | 97.6% | > 10 µM | > 10 µM | > 10 µM | > 10 µM | > 10 µM | 0 | 0 | 1.2 | 0 | 0
4 | CN(C)Cc1ccc(-c2nc3cccc4c3n2CCNC4=O)cc1 | 92.8% | 117% | 104% | 100% | 98.2% | 85.7% | 90.3% | 80.8% | 73.7% | 99.7% | 109% | 93.3% | 97.5% | 95.9% | 77.1% | 93.6% | 98% | 94.6% | 100% | 99.8% | 104% | 95.9% | 103% | 96% | 101% | > 10 µM | > 10 µM | > 10 µM | > 10 µM | > 10 µM | 0 | 0 | 1.4 | 0 | 0
5 | CNc1nc(C)nc(N[C@H]2CCC[C@@H](C(=O)NCc3ccc(C#N)cc3C(F)(F)F)C2)n1 | 87.8% | 102% | 91.8% | 98.6% | 95.1% | 93.9% | 98.1% | 97% | 93.2% | 89.4% | 99.4% | 98.7% | 103% | 94.7% | 111% | 97% | 100% | 97.9% | 107% | 99.9% | 99.3% | 96.8% | 100% | 96.8% | 108% | > 10 µM | > 10 µM | > 10 µM | > 10 µM | > 10 µM | 0 | 0 | 0 | 0 | 0
6 | COc1cc(Nc2nc3ccccc3nc2NS(=O)(=O)c2ccc(NC(=O)c3ccc(C)c(OC)c3)cc2)cc(OC)c1 | 95.4% | 100% | 96% | 97.7% | 103% | 109% | 85.9% | 109% | 94.4% | 110% | 101% | 83.8% | 92.1% | 99.1% | 89.7% | 97% | 97.7% | 97.1% | 95.9% | 103% | 99.9% | 95.9% | 102% | 95.7% | 99.9% | > 10 µM | > 10 µM | > 10 µM | > 10 µM | > 10 µM | 0 | 0 | 0 | 0 | 0
7 | COc1cccc(CN(C(=O)CC(C)(C)C)[C@H]2C[C@@H](C(=O)N3CCNCC3)N(Cc3ccc4c(c3)OCO4)C2)c1 | 98.4% | 106% | 98.3% | 102% | 87.5% | 93.6% | 98% | 95.3% | 92.4% | 102% | 94.8% | 96.2% | 87.2% | 104% | 91.4% | 95.2% | 98% | 97.3% | 97% | 90.7% | 101% | 102% | 107% | 98.2% | 95.6% | > 10 µM | > 10 µM | > 10 µM | > 10 µM | > 10 µM | 0 | 0 | 0 | 0 | 0
8 | COc1ncc(-c2ccc3nccc(-c4ccnnc4)c3c2)cc1NS(=O)(=O)c1ccc(F)cc1F | 84.8% | 60.2% | 19% | 25.3% | 28.8% | 79.4% | 47.4% | 22.2% | 19.5% | 17.4% | 98.8% | 77.2% | 46.3% | 25% | 29.2% | 91% | 80.3% | 34.2% | 13.9% | 0.9% | 90.2% | 80.1% | 38.9% | 22.6% | 15.1% | 0.0081 µM | 0.0044 µM | 0.0297 µM | 0.0484 µM | 0.0351 µM | 29.8 | 32.5 | 22.2 | 26.2 | 24.1
9 | Cc1cc(SCc2sc(-c3ccc(C(F)(F)F)cc3)nc2C)ccc1OCC(=O)O | 99.9% | 103% | 104% | 103% | 96.2% | 108% | 92.8% | 92.6% | 99.5% | 102% | 99% | 101% | 106% | 104% | 96.1% | 98.4% | 102% | 99.9% | 107% | 99% | 106% | 104% | 103% | 97.6% | 97.3% | > 10 µM | > 10 µM | > 10 µM | > 10 µM | > 10 µM | 0 | 0 | 0 | 0 | 0
10 | Clc1cccc2c1CN(C1=NCCN1)C2 | 100% | 100% | 95.6% | 98.8% | 97.3% | 97.1% | 90.1% | 109% | 101% | 98.3% | 96.7% | 101% | 91.8% | 92.5% | 97.3% | 101% | 101% | 97.3% | 102% | 92.1% | 98.9% | 98.7% | 104% | 98.5% | 99.2% | > 10 µM | > 10 µM | > 10 µM | > 10 µM | > 10 µM | 0 | 0 | 0 | 0 | 0
11 | NC(=O)N/N=C/c1ccc(Oc2ccc(F)cc2)cc1 | 99.6% | 98.4% | 104% | 96.8% | 97.9% | 99.9% | 101% | 80.1% | 92.8% | 109% | 95.8% | 106% | 92.4% | 89.7% | 96% | 95.9% | 94.5% | 98.9% | 97.6% | 99.4% | 105% | 101% | 104% | 100% | 86.6% | > 10 µM | > 10 µM | > 10 µM | > 10 µM | > 10 µM | 0 | 0 | 0.1 | 0 | 0.1
12 | O=C(NCC1CCOCC1)c1cnc(Nc2ccc(Cl)cc2Cl)nc1C(F)(F)F | 104% | 99.3% | 113% | 104% | 101% | 104% | 107% | 100% | 99.4% | 105% | 105% | 102% | 102% | 99.2% | 112% | 96.5% | 102% | 96% | 95.5% | 93.2% | 99.8% | 91.9% | 94.8% | 93.1% | 98.9% | > 10 µM | > 10 µM | > 10 µM | > 10 µM | > 10 µM | 0 | 0 | 0 | 0 | 0
13 | O=C(N[C@H]1CN2CCC1CC2)c1ccc2c(c1)OCCO2 | 93.6% | 95.2% | 87.5% | 101% | 99.1% | 93.6% | 98.3% | 102% | 102% | 99.3% | 101% | 93% | 108% | 97.7% | 94.6% | 98.8% | 94.8% | 97.8% | 95.3% | 97.2% | 100% | 89.3% | 97.2% | 91.3% | 107% | > 10 µM | > 10 µM | > 10 µM | > 10 µM | > 10 µM | 0 | 0 | 0 | 0 | 0
14 | O=C(Nc1ccccc1)N1CCN(c2nc(-c3ccccc3)ns2)CC1 | 100% | 97.8% | 101% | 95.4% | 86.7% | 116% | 102% | 106% | 96.8% | 102% | 100% | 118% | 101% | 106% | 76.9% | 104% | 99.5% | 97.8% | 99.6% | 98.9% | 93.3% | 96.3% | 94.1% | 93% | 83% | > 10 µM | > 10 µM | > 10 µM | > 10 µM | > 10 µM | 0.4 | 0 | 0.6 | 0 | 0.3
